Measurements published in article PMC12332266 (Frontiers in Pharmacology, 2025).
Like-named read-outs stand apart in the source and are kept apart here.

Legend:
[1] = tested on: hiPSC-CM (iCell Cardiomyocytes^2); assay: RTCA CardioECR assessment (impedance and electrophysiology parameters)
Summary of the method: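 iCell^2 cardiomyocytes on fibronectin-coated ePlates monitored continuously by impedance for cell index, beating rate and amplitude. Field potential duration and spike amplitude were recorded from day 4–6 after monolayer formation. Data were double-normalized to DMSO control and baseline, with variability given as SD.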

[2] = tested on: hiPSC-CM (iCell Cardiomyocytes^2); assay: Intracellular miRNA expression by RT-qPCR in hiPSC-CM pellets after 72-hour treatment; details: for fold induction at 0.3 µM / fold induction at 1 µM / fold induction at 3 µM / fold induction at 10 µM / fold induction at 0.01 µM / fold induction at 0.03 µM / fold induction at 0.1 µM: Homo sapiens
Summary of the method: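 After 72-hour treatment and RTCA CardioECR assessment, total RNA from hiPSC-CM pellets was reverse transcribed, pre-amplified and quantified by TaqMan RT-qPCR against a 17-miRNA panel. Triplicates were pooled, so no statistical analysis was performed.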

[3] = ref extensive literature search, cited from earlier work
[4] = hiPSC-CM, 72-hour treatment, lowest concentration causing at least 20% change from baseline
[5] = 72 h, read-out: hsa-miR-7-5p fold change
[6] = 72 h, read-out: hsa-miR-29a-5p fold change
[7] = 72 h, read-out: hsa-miR-96-5p fold change
[8] = 72 h, read-out: hsa-miR-126-3p fold change
[9] = 72 h, read-out: hsa-miR-146b-5p fold change
[10] = 72 h, read-out: hsa-miR-182-5p fold change
[11] = 72 h, read-out: hsa-miR-185-3p fold change
[12] = 72 h, read-out: hsa-miR-187-3p fold change
[13] = 72 h, read-out: hsa-miR-208b-3p fold change
[14] = 72 h, read-out: hsa-miR-[…] change
[15] = lowest concentration tested which produced miRNA upregulation (fold change ≥2), 72 h

## Cc1cn(-c2cc(NC(=O)c3ccc(C)c(Nc4nccc(-c5cccnc5)n4)c3)cc(C(F)(F)F)c2)cn1 [Nilotinib]
[1]; [4]
  Cell index (CI) MEC: ND (ND – not detected, magnitude of change was lower than 20%)
[1]; hiPSC-CM, change ≥20%, Table 2
  RTCA, MEC (CI): ND (ND – not detected, magnitude of change was lower than 20% for CI/BR)
[1]; human, 72 h
  Contractility Amplitude MEC: 0.1 µM
  Spike Amplitude (SA) MEC: 0.01 µM
[2]
  intracellular miRNA upregulation in hiPSC-CM, in words: smallest fold change
  miRNAs hiPSC-CM pellet, MEC overall: 0.3 µM
  miRNAs upregulated at the MEC overall (hiPSC-CM pellet): miR-126-3p
[2]; 0.01 µM, 72 h
  hsa-miR-7-5p fold change, intracellular: 1.2
  hsa-miR-29a-5p fold change, intracellular: 0.5
  hsa-miR-126-3p fold change, intracellular: 1.4
  hsa-miR-133b fold change, intracellular: 0.3
  hsa-miR-146b-5p fold change, intracellular: 0.2
  hsa-miR-182-5p fold change, intracellular: 0.3
  hsa-miR-185-3p fold change, intracellular: 0.7
  hsa-miR-187-3p fold change, intracellular: 0.7
  hsa-miR-208b-3p fold change, intracellular: 1.0
  hsa-miR-365a-5p fold change, intracellular: 0.8
[2]; 0.1 µM, 72 h
  hsa-miR-7-5p fold change, intracellular: 1.2
  hsa-miR-29a-5p fold change, intracellular: 0.2
  hsa-miR-96-5p fold change, intracellular: 0.3
  hsa-miR-126-3p fold change, intracellular: 3.0
  hsa-miR-133b fold change, intracellular: 0.2
  hsa-miR-146b-5p fold change, intracellular: 0.2
  hsa-miR-182-5p fold change, intracellular: 0.2
  hsa-miR-185-3p fold change, intracellular: 1.5
  hsa-miR-187-3p fold change, intracellular: 0.7
  hsa-miR-208b-3p fold change, intracellular: 1.1
  hsa-miR-365a-5p fold change, intracellular: 0.2
[2]; 0.3 µM, 72 h
  hsa-miR-7-5p fold change, intracellular: 0.5
  hsa-miR-29a-5p fold change, intracellular: 0.2
  hsa-miR-126-3p fold change, intracellular: 4.3
  hsa-miR-133b fold change, intracellular: 0.4
  hsa-miR-146b-5p fold change, intracellular: 0.2
  hsa-miR-182-5p fold change, intracellular: 0.7
  hsa-miR-185-3p fold change, intracellular: 0.7
  hsa-miR-187-3p fold change, intracellular: 0.5
  hsa-miR-208b-3p fold change, intracellular: 0.5
  hsa-miR-365a-5p fold change, intracellular: 0.7
[2]; 1 µM, 72 h
  hsa-miR-7-5p fold change, intracellular: 0.9
  hsa-miR-29a-5p fold change, intracellular: 0.4
  hsa-miR-96-5p fold change, intracellular: 1.4
  hsa-miR-126-3p fold change, intracellular: 5.5
  hsa-miR-133b fold change, intracellular: 0.3
  hsa-miR-146b-5p fold change, intracellular: 0.3
  hsa-miR-182-5p fold change, intracellular: 0.4
  hsa-miR-185-3p fold change, intracellular: 0.3
  hsa-miR-187-3p fold change, intracellular: 0.7
  hsa-miR-208b-3p fold change, intracellular: 1.2
[3]; Supplementary Table 1
  Cmax total: 840 to 4270 nM
[3]; Table 1
  Cmax total: 840 to 4270 nM

## N=C(N)c1ccc(OCCCCCOc2ccc(C(=N)N)cc2)cc1 [Pentamidine]
[1]; human, 72 h
  Beating Rate MEC: 3 µM
  Beating rate (BR) MEC: 3 µM
  Contractility Amplitude MEC: 0.1 µM
  Field Potential Duration MEC: 1 µM
  RTCA, MEC (BR): 3 µM (CI, BR)
  RTCA, MEC (CI): 3 µM (CI, BR)
  Spike Amplitude (SA) MEC: 0.1 µM
[2]
  miRNAs hiPSC-CM pellet, MEC overall: 0.1 µM
  miRNAs upregulated at the MEC overall (hiPSC-CM pellet): miR-126-3p, miR-146b-5p, miR-208b-3p
[3]; Supplementary Table 1
  Cmax total: 1800 nM
[3]; Table 1
  Cmax total: 1800 nM

## CCCN1C[C@H](CSC)C[C@@H]2c3cccc4[nH]cc(c34)C[C@H]21 [Pergolide]
[1]; human, 72 h
  Contractility Amplitude MEC: 0.0003 µM
  Spike Amplitude (SA) MEC: 10 µM
[2]
  miRNAs hiPSC-CM pellet, MEC overall: 0.3 µM
  miRNAs upregulated at the MEC overall (hiPSC-CM pellet): miR-96-5p, miR-146b-5p
[2]; [5]
  fold induction at 0.3 µM: 1
  fold induction at 1 µM: 0.7
  fold induction at 3 µM: 1.4
  fold induction at 10 µM: 1
[2]; [6]
  fold induction at 0.3 µM: 1
  fold induction at 1 µM: 0.2
[2]; [7]
  fold induction at 0.3 µM: 2.8
  fold induction at 1 µM: 5.6
[2]; [8]
  fold induction at 0.3 µM: 1.2
  fold induction at 1 µM: 1.1
  fold induction at 3 µM: 1.1
  fold induction at 10 µM: 2
[2]; [9]
  fold induction at 0.3 µM: 4.3
  fold induction at 1 µM: 6.1
  fold induction at 3 µM: 20.8
  fold induction at 10 µM: 1.1
[2]; [10]
  fold induction at 0.3 µM: 0.5
  fold induction at 1 µM: 2.2
  fold induction at 3 µM: 0.9
  fold induction at 10 µM: 2.2
[2]; [11]
  fold induction at 0.3 µM: 1.1
  fold induction at 1 µM: 5.6
  fold induction at 3 µM: 7.2
  fold induction at 10 µM: 1.9
[2]; [12]
  fold induction at 0.3 µM: 0.6
  fold induction at 1 µM: 0.9
  fold induction at 3 µM: 21.8
  fold induction at 10 µM: 0.6
[2]; [13]
  fold induction at 0.3 µM: 1.5
  fold induction at 1 µM: 2.2
  fold induction at 3 µM: 2.6
  fold induction at 10 µM: 2.5
[2]; 72 h, read-out: hsa-miR-365a-5p fold change
  fold induction at 1 µM: 5.2
[2]; [14]
  fold induction at 0.3 µM: 0.9
  fold induction at 1 µM: 1.1
  fold induction at 3 µM: 1.7
  fold induction at 10 µM: 1.4
[3]; Supplementary Table 1
  Cmax total: 12700 nM
[3]; Table 1
  Cmax total: 12700 nM

## CCN(CC)CCNC(=O)c1c(C)[nH]c(/C=C2\C(=O)Nc3ccc(F)cc32)c1C [Sunitinib]
[1]; hiPSC-CM, 72-hour treatment, at least 20% change, Supplementary Table 1
  Beating Rate MEC: 1 µM
[1]; [4]
  Beating rate (BR) MEC: 1 µM
[1]; hiPSC-CM, change ≥20%, Table 2
  RTCA, MEC (BR): 1 µM (BR)
[1]; human, 72 h
  Spike Amplitude (SA) MEC: 0.01 µM
[2]; [15]
  miRNAs hiPSC-CM pellet, MEC overall: 0.01 µM
[3]; Supplementary Table 1
  Cmax total: 181 to 250 nM
[3]; Table 1
  Cmax total: 180 to 250 nM

## CCCCCNC(=N)N/N=C/c1c[nH]c2ccc(OC)cc12 [Tegaserod]
[1]; hiPSC-CM, 72-hour treatment, at least 10% change
  Field Potential Duration MEC: 0.1 µM
[1]; [4]
  Beating rate (BR) MEC: ND (ND – not detected, magnitude of change was lower than 20%)
  Cell index (CI) MEC: ND (ND – not detected, magnitude of change was lower than 20%)
[1]; hiPSC-CM, change ≥20%, Table 2
  RTCA, MEC (BR): ND (ND – not detected, magnitude of change was lower than 20% for CI/BR)
  RTCA, MEC (CI): ND (ND – not detected, magnitude of change was lower than 20% for CI/BR)
[1]; human, 72 h
  Spike Amplitude (SA) MEC: 0.01 µM
[2]; [5]
  fold induction at 0.01 µM: 0.8
  fold induction at 0.03 µM: 1.4
  fold induction at 0.1 µM: 1.3
  fold induction at 0.3 µM: 2
[2]; [8]
  fold induction at 0.01 µM: 2
  fold induction at 0.03 µM: 4.9
  fold induction at 0.1 µM: 0.9
  fold induction at 0.3 µM: 3.2
[2]; [9]
  fold induction at 0.01 µM: 0.5
  fold induction at 0.03 µM: 0.7
  fold induction at 0.1 µM: 1.2
  fold induction at 0.3 µM: 0.9
[2]; [10]
  fold induction at 0.01 µM: 1.8
  fold induction at 0.03 µM: 3.9
  fold induction at 0.1 µM: 1.9
  fold induction at 0.3 µM: 15.7
[2]; [11]
  fold induction at 0.01 µM: 0.7
  fold induction at 0.03 µM: 1.3
  fold induction at 0.1 µM: 0.9
  fold induction at 0.3 µM: 1
[2]; [12]
  fold induction at 0.01 µM: 2.5
  fold induction at 0.03 µM: 2
  fold induction at 0.1 µM: 2
  fold induction at 0.3 µM: 3.7
[2]; [13]
  fold induction at 0.01 µM: 1.8
  fold induction at 0.03 µM: 1.2
  fold induction at 0.1 µM: 1.7
  fold induction at 0.3 µM: 1.4
[2]; [14]
  fold induction at 0.01 µM: 0.8
  fold induction at 0.03 µM: 0.8
  fold induction at 0.1 µM: 0.9
  fold induction at 0.3 µM: 0.7
[2]; fold change ≥2, 72 h
  miRNAs upregulated at the MEC overall (hiPSC-CM pellet): miR-126-3p, miR-187-3p
[2]; [15]
  miRNAs hiPSC-CM pellet, MEC overall: 0.01 µM
[3]; Supplementary Table 1
  Cmax total: 80 nM
[3]; Table 1
  Cmax total: 80 nM
